From US11458155B1, “Active ingredient complexes, compositions and methods for hangover relief and to ameliorate alcohol-induced liver damage” (FULGENT LIFE INC., priority 2021, dated 2022)

What was measured:
[1] = cited from earlier work
male C57BL/6J mice [2] = test: Liver triglyceride (TG) level, lipid metabolism in acute alcoholic liver damage; assay type: in vivo; conditions: 500 mg/kg pretreatment, alcohol-loaded mice, vs alcohol exposure alone; FIG. 4A
cells = conditions: cited from earlier work
male C57BL/6J mice [3] = test: Serum very low density lipoprotein (VLDL), lipid metabolism in acute alcoholic liver damage; assay type: in vivo; conditions: 500 mg/kg pretreatment, alcohol-loaded mice, vs alcohol exposure alone; FIG. 4B
male C57BL/6J mice [4] = test: Plasma AST and ALT, acute alcohol-induced hepatotoxicity; assay type: in vivo; conditions: 500 mg/kg intragastric before 8 ml/kg ethanol (40% w/v), blood 6 hours after alcohol, vs model group
C57BL/6J mice = conditions: cited from earlier work
male C57BL/6J mice [5] = test: Blood acetaldehyde concentration after ethanol ingestion (headspace gas chromatography); assay type: in vivo; conditions: FIG. 1B
male C57BL/6J mice [6] = test: Liver MDA and SOD, oxidative damage caused by acute alcohol ingestion; assay type: in vivo; conditions: 500 mg/kg intragastric 15 min prior to 8 ml/kg ethanol (40% w/v), liver 6 hours after alcohol; for MDA content in the liver: FIG. 3A; for SOD activity in liver: FIG. 3B
male C57BL/6J mice [7] = test: Blood ethanol concentration after ethanol ingestion (headspace gas chromatography); assay type: in vivo; conditions: oral/intragastric 500 mg/kg (Example 1: 250 or 500 mg/kg) before 8 ml/kg ethanol (40% w/v); FIG. 1A
Experimental: Mice were randomly divided into a normal group (untreated group), a control group and a treatment group, with 8 mice in each group. […] The control group was given the same ethanol solution and corresponding distilled water, while the normal group was only given corresponding distilled water. At different time points of the experiment, the mice were anesthetized by intraperitoneal injection of 10% chloral hydrate (350 mg/kg body weight). Blood and liver tissues were extracted from each animal.
Eyeball blood samples (0.3 mL) were taken, each was put into an 8 mL headspace vial containing 1.2 mL 0.6 M perchloric acid, 0.5 mL trichloroacetic acid (10%) and 0.3 mL internal standard (160 mg/L tertiary butanol), and the concentrations of ethanol and acetaldehyde were determined with headspace gas chromatography.
Blood samples were collected from the infraorbital venous plexus at different time points (as indicated) after the ethanol administration. Blood ethanol (FIG. 1A) and acetaldehyde (FIG. 1B) levels were determined. Each group contained 6-8 mice. Data are presented as the mean±SD.

glutamate receptors = conditions: not as great as that of L-glutamic acid; cited from earlier work
[8] = after oral administration; cited from earlier work
mice [9] = conditions: intraperitoneal injection of theanine, oral administration of ethanol; cited from earlier work
mice [10] = conditions: cited from earlier work
rats = conditions: cited from earlier work

N[C@@H](CS)C(=O)O [L-cysteine]
stress and anxiety ([1]; dose of 600 mg): relieved
self-assessed severity of the hangover, nausea and headache ([1]; dose of 1200 mg): improved

NC(=O)C1=CN([C@@H]2O[C@H](COP(=O)(O)OP(=O)(O)OC[C@H]3O[C@@H](n4cnc5c(N)ncnc54)C(O)C3O)C(O)C2O)C=CC1 (some centres unmarked) [NADH, nicotinamide adenine dinucleotide (NAD)+hydrogen (H)]
liver TG level (male C57BL/6J mice [2]): decreased
cell death caused by NAD+-depleting genotoxins (cells; NADH-treated cells, e.g. hydrogen peroxide): resistant to cell death
NAD+ increase compared to nicotinamide mononucelotide (NMN) (cells; at the same concentrations): greater NAD+ increases
apoptosis markers in cells (cells): did not induce apoptosis markers
serum VLDL level (male C57BL/6J mice [3]): decreased
plasma AST level (male C57BL/6J mice [4]; FIG. 2A): significantly reduce
plasma ALT level (male C57BL/6J mice [4]; FIG. 2B): significantly reduce
liver NAD+/NADH ratio (C57BL/6J mice): significantly increased
NAD+ content in liver, blood, brain and fat (C57BL/6J mice; intraperitoneal injection): significantly increased
acetaldehyde in the blood (male C57BL/6J mice [5]; after two hours after ethanol administration): significantly reduced
blood acetaldehyde levels (male C57BL/6J mice [5]; between 30 minutes and two hours after ethanol administration): significantly increased
MDA content in the liver (male C57BL/6J mice [6]): significantly reduce
SOD activity in liver (male C57BL/6J mice [6]): increase
ethanol in blood (male C57BL/6J mice [7]): significantly reduce

CCNC(=O)CC[C@H](N)C(=O)O [L-theanine]
binding affinity to glutamate receptors (glutamate receptors): weak
time to cross the blood-brain barrier [8]: ≤ 30 min
effect with respect to alcoholic liver injury (mice [9]): protective effect
ethanol in blood (male C57BL/6J mice [7]): significantly reduce

CC(=O)N[C@@H](CS)C(=O)O [NAC, N-acetyl-cysteine]
MDA content in the liver (male C57BL/6J mice [6]): significantly reduce
SOD activity in liver (male C57BL/6J mice [6]): increase
ethanol in blood (male C57BL/6J mice [7]): significantly reduce

O=C1c2c(O)cc(O)cc2O[C@H](c2cc(O)c(O)c(O)c2)[C@H]1O [DHM, Dihydromyricetin]
blood alcohol levels (mice [10]): reduce blood alcohol levels
ethanol in blood (male C57BL/6J mice [7]): significantly reduce
muscle relaxation induced by alcohol (rats): prevent muscle relaxation
